The target of assay [1] is T1, Serine/threonine-protein kinase LATS2 (Homo sapiens) (UniProt Q9NRM7).
T1 sequence (whole entry): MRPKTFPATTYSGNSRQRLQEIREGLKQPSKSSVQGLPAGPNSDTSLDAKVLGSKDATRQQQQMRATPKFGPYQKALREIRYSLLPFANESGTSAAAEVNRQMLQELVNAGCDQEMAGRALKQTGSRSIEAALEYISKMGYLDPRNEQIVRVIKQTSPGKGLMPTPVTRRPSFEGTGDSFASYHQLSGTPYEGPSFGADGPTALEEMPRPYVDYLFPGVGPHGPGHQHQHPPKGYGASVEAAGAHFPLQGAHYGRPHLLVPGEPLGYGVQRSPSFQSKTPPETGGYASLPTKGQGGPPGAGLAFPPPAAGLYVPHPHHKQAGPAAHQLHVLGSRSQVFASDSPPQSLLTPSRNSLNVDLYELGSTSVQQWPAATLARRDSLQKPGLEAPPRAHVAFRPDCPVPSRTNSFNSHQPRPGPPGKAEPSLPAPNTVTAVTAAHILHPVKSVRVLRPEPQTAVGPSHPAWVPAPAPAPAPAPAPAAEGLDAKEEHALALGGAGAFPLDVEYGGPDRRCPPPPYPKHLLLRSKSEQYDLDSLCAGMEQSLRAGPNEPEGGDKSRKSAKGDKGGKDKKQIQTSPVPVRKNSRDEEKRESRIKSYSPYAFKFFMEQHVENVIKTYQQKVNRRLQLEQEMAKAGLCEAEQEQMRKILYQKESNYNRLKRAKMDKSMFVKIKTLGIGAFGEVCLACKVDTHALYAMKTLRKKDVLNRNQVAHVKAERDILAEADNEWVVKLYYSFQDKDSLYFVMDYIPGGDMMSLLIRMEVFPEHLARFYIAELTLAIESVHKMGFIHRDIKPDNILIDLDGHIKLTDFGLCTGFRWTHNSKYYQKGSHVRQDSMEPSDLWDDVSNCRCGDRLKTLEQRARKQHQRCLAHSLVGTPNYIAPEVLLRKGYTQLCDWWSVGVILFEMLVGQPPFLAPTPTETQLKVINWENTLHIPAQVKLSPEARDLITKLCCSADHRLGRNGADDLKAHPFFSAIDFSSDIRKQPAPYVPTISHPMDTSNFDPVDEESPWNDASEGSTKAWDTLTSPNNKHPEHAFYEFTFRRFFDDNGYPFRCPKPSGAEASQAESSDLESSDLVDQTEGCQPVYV
Conditions: at 10 µM.

Assay [2] concerns the target Cyclin-dependent kinase 8 (Homo sapiens, UniProt P49336). The experiment in a line: Selectivity interaction (Ambit KINOMEscan and KiNATiv profiling in Jurkat cells) EUB0000090b CDK8. The following applies: at 1 µM. Format: cell-based.
Assay [3] deals with Serine/threonine-protein kinase SIK1 (Homo sapiens) (UniProt P57059). Nature of the assay: Selectivity interaction (KinomeScan (DiscoverX)) EUB0001079a SIK1. Conditions: at 1 µM.
The target in assay [4] is Mitogen-activated protein kinase 9 (Homo sapiens, UniProt P45984). The experiment in a line: Selectivity interaction (KinomeScan (DiscoverX)) EUB0001049a MAPK9. The following applies: at 1 µM.
The target of assay [5] is Tyrosine-protein kinase FRK (Homo sapiens) (UniProt P42685). The experiment in a line: Selectivity interaction (KinomeScan (DiscoverX)) EUB0001049a FRK. Conditions: at 1 µM.
Assay [6] has as its target T2, Serine/threonine-protein kinase TBK1 (Homo sapiens) (UniProt Q9UHD2).
T2 sequence (whole entry): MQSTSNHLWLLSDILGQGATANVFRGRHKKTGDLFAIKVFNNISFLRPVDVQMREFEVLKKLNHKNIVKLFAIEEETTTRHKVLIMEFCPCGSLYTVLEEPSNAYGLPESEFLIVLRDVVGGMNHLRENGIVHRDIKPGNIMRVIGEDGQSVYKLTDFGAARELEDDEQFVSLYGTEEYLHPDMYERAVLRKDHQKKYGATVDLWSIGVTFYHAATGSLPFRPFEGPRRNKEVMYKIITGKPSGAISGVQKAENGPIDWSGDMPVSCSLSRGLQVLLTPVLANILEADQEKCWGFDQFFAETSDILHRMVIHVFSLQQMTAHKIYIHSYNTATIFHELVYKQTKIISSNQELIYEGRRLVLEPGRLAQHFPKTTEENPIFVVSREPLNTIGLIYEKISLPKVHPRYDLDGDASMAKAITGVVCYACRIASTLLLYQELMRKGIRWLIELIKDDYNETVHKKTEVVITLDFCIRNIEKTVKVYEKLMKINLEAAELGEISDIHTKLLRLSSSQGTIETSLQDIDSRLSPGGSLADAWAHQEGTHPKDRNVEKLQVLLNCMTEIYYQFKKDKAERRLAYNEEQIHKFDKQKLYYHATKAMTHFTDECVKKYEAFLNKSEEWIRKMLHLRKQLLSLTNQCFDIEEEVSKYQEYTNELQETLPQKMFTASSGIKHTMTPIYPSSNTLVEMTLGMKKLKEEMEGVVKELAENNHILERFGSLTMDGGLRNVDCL
The experiment in a line: Selectivity interaction (KinomeScan (DiscoverX)) EUB0000655a TBK1. Conditions: at 10 µM.

The target of assay [7] is Insulin receptor-related protein (Homo sapiens) (UniProt P14616). Nature of the assay: Selectivity interaction (KinomeScan (DiscoverX)) EUB0000045b INSRR.
Chain of Insulin receptor-related protein (Homo sapiens) (P14616 27-742 limits assumed): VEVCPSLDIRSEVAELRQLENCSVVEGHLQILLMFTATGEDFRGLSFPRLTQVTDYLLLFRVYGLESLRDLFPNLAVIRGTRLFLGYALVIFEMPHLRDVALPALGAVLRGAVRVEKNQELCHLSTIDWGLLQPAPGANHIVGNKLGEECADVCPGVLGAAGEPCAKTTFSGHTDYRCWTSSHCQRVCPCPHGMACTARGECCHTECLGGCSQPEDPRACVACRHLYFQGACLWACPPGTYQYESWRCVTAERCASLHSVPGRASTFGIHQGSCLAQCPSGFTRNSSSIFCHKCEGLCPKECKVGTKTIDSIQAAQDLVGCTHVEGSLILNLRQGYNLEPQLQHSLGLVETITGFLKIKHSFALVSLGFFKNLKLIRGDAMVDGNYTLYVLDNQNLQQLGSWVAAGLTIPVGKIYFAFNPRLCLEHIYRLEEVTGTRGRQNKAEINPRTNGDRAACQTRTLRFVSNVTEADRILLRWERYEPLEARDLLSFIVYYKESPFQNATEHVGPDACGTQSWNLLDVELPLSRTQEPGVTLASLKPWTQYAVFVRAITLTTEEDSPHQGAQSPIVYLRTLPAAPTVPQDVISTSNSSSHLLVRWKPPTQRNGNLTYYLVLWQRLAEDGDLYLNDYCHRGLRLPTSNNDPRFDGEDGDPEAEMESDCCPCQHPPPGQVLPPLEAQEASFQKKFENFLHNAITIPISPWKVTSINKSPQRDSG
Chain of Insulin receptor-related protein (Homo sapiens) (P14616 747-1297 limits assumed): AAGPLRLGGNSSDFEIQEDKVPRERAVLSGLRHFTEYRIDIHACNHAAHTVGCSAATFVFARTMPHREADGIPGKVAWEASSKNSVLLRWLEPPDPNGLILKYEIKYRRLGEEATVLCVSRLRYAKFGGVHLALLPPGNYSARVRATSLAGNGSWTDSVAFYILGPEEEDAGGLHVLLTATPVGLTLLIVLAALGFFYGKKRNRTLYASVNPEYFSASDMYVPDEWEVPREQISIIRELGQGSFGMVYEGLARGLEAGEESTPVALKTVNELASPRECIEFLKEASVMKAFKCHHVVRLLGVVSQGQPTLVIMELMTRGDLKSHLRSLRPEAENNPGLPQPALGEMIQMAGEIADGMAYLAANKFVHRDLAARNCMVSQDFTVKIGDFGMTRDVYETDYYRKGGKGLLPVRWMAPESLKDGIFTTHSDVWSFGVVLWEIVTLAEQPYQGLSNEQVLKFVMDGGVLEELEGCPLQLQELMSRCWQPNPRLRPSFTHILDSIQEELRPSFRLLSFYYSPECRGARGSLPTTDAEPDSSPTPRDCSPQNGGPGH

Chain of Cyclin-dependent kinase 8 (P49336 whole entry): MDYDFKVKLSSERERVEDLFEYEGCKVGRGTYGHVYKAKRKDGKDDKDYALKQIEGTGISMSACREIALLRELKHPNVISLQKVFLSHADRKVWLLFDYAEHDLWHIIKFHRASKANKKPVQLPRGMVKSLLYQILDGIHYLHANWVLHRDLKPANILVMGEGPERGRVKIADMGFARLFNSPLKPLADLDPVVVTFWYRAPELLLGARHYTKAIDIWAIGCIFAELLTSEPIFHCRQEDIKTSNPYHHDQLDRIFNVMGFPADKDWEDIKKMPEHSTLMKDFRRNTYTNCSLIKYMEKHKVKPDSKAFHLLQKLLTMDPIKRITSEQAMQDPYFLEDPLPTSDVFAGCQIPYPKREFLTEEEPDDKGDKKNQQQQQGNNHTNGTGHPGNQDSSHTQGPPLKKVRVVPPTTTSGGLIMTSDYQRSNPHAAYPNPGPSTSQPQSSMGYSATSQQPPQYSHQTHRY
Chain of Mitogen-activated protein kinase 9 (P45984 whole entry, looked up): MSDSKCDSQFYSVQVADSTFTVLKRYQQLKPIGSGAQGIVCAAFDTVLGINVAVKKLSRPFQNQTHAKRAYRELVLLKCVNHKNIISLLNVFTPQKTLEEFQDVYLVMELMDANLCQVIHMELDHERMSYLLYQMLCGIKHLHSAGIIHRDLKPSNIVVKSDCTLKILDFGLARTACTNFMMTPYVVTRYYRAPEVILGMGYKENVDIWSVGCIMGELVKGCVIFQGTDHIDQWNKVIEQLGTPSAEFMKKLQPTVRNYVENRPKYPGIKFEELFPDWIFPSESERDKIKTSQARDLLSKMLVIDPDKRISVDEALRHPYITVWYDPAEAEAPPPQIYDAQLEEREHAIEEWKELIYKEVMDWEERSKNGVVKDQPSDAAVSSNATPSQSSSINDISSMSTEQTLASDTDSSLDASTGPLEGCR
Chain of Serine/threonine-protein kinase SIK1 (Homo sapiens) (P57059 whole entry): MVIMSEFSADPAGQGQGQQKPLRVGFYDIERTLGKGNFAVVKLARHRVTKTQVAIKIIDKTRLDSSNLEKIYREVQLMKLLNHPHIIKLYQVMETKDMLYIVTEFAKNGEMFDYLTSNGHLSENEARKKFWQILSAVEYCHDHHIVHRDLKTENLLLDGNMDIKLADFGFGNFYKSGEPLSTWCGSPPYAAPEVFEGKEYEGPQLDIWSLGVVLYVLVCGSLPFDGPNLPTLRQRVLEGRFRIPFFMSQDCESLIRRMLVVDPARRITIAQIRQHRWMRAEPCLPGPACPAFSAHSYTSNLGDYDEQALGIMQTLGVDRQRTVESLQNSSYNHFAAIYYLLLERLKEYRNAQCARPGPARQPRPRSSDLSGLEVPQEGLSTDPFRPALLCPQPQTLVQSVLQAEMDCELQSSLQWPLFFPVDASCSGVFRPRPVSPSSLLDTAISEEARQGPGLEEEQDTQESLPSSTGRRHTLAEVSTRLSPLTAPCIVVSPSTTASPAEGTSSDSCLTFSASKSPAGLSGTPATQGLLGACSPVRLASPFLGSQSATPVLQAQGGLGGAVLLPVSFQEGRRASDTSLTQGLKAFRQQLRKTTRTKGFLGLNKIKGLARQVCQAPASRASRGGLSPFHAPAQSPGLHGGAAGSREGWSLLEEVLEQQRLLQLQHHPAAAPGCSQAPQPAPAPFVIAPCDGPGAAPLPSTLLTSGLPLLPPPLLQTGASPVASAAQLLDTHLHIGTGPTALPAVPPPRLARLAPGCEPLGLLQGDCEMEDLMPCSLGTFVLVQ
Chain of Tyrosine-protein kinase FRK (Homo sapiens) (P42685 whole entry): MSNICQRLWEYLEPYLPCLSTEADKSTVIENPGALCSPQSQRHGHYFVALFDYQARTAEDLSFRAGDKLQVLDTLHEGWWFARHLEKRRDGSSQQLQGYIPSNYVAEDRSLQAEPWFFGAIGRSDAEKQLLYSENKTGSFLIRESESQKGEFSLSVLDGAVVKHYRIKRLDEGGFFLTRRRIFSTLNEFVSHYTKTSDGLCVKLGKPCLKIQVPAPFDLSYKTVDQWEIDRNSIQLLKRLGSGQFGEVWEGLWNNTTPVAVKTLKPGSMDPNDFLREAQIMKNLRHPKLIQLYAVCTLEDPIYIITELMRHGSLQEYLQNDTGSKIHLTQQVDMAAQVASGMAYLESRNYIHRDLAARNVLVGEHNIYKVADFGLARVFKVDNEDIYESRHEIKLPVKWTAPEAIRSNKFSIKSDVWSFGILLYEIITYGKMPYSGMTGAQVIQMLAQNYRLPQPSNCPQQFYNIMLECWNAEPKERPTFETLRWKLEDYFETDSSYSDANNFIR

On to `Cc1cc([C@@H](C)Nc2ccccc2C(=O)O)c2nc(N3CCOCC3)cc(=O)n2c1` [AZD-6482], for which, in assay [1], the % of control stood at 63%.

`CN(C)C/C=C/C(=O)Nc1ccc(C(=O)N2CCCC(Nc3ncc(Cl)c(-c4c[nH]c5ccccc45)n3)C2)cc1` (stereo not drawn): the % of control in assay [2] worked out at 100%. Regarding `Nc1cnc(N2CCc3cc(S(=O)(=O)Nc4c(F)cc(Cl)cc4F)cc(N4CCCC4=O)c32)nc1` [TP-020n], the % of control in assay [3] is 100%. For `COc1cc(Nc2nc(C)cc(-c3cnn4nc(OC)ccc34)n2)cc(C(F)(F)F)c1`, the values for the % of control in assay [4] and in assay [5] were 82% and 100%, respectively.

In assay [6], `CN(C)CCOc1ccc(-c2nc(-c3ccncc3)c(-c3ccc4c(c3)CC/C4=N\O)[nH]2)cc1` had a % of control of 84%. `C=CC(=O)Nc1cc(-n2c(=O)ccc3cnc4ccc(-c5ccc(NS(C)(=O)=O)cc5)cc4c32)ccc1C`: the % of control in assay [7] (at 1 µM) amounted to 98%; in assay [7] (at 10 µM), 100%.

Source of the values: ChEMBL document CHEMBL5465560, “Selectivity Literature for EUbOPEN Chemogenomic Library” (2024).
